Molecules are shown by their SMILES.

The nature of series [1]: Stability in Simulated Gastric Fluid (SGF). It counts as in vitro ADME. The following applies: SGF:acetonitrile 9:1, 0.01 mg/mL, 37° C. How it is done: (§1) Stability in Simulated Gastric Fluid (SGF) and Simulated Intestinal Fluid (SIF). Procedure from Baudy et. al. (J. Med. Chem. 2009, 52, 771-778) used. The physiological stability of pro-drugs was determined by examining the stability of the compound in SGF, and SIF at 37° C. The compounds were prepared in a 9:1 mixture of the appropriate test component (SGF, SIF) and acetonitrile to a final concentration of 0.01 mg/mL. The samples were thoroughly mixed and maintained at 37° C. Each sample was injected consecutively onto an Agilent 1100 system (Luna C18, 3 μm, 50 mm×3 mm; 1 mL/min; mobile phase of 0.1% trifluoroacetic acid in water/0.1% trifluoroacetic acid in acetonitrile) after a 3 h period. The percent remaining of pro-drug was calculated by comparing the area of pro-drug compound versus riluzole generated. The identities of the parent compounds and conversion products were confirmed by LC/MS.

The nature of series [2]: Stability in Simulated Intestinal Fluid (SIF). The conditions noted are these: SIF:acetonitrile 9:1, 0.01 mg/mL, 37° C. It counts as in vitro ADME. Here is the method:
as §1

The nature of series [3]: Metabolic stability in pooled mouse liver microsomes. The following applies: mouse liver microsomes 0.5 mg/mL, 1 uM, NADPH, 37° C. It counts as in vitro ADME. How it is done: (§2) Metabolic Stability: In vitro metabolic stability was determined in pooled mouse or human liver microsomes (BD Gentest) at a protein concentration of 0.5 mg/mL in reaction buffer (100 mM KH2PO4, pH 7.4 and 12 mM MgCl2). Each drug candidate was added to a final concentration of 1 uM. This mixture was pre-warmed to 37° C. for 10 minutes prior to starting the reaction with the addition of β-Nicotinamide adenine dinucleotide 2′-phosphate reduced (NADPH) to a final concentration of 1 mM. A parallel incubation lacking NADPH served as the control. After incubation for 30 min at 37° C., the reactions were quenched by the addition of acetonitrile containing 0.1% formic acid and internal standard, vortex mixed for 2 minutes and centrifuged at 4000 rpm for 10 minutes to pellet the precipitated protein. The resulting supernatant containing the drug candidate and its potential metabolites was diluted 5-fold with water containing 0.1% formic acid and submitted to LC-MS/MS analysis. […]
(§3) LC-MS/MS Analysis: An aliquot from each incubation was analyzed by LC-MS/MS with SRM detection in the positive ionization mode using an ABSciex API 5500 QTrap Mass Spectrometer interfaced via the ABSciex Turbo V IonSpray source (ESI) to an Eksigent ExpressHT LC system. […] A fast gradient, from 15 to 85% organic in 2.5 minutes, with run time of 5.0 minutes, and flow rate of 50 uL/min was utilized. Peak areas were integrated using MultiQuant v2.0 software from ABSciex.
(Liver microsomes are a subcellular fraction often used to study metabolism.)

Series [4] is described as follows: Metabolic stability in pooled human liver microsomes. Format: in vitro ADME. The conditions noted are these: human liver microsomes 0.5 mg/mL, 1 uM, NADPH, 37° C. Here is the method: as §2, §3
The nature of series [5]: Plasma stability in fresh mouse plasma. It counts as in vitro ADME. The conditions noted are these: 1 uM, 37° C. Here is the method:
(§4) Plasma Stability: Assessment of plasma stability was carried out by individual incubations of drug candidates in fresh mouse or human control plasma at a concentration of 1 uM for 1 hour at 37° C. After which, the samples were de-proteinized by addition of 2 volumes of acetonitrile containing 0.1% formic acid and internal standard, vortex mixed for 2 minutes and centrifuged at 4000 rpm for 10 minutes to pellet precipitated protein. The resulting supernatant containing the drug candidates was diluted 5-fold with water containing 0.1% formic acid and submitted to LC-MS/MS analysis. All determinations were done in triplicate. […]
as §3

The nature of series [6]: Plasma stability in fresh human plasma. Format: in vitro ADME. The following applies: 1 uM, 37° C. How it is done:
as §4, §3

Series [7] deals with amyotrophic lateral sclerosis (ALS) patients. The following applies: after 1.5 years of treatment; cited from earlier work.

As for `CC(C)COC(=O)Nc1nc2ccc(OC(F)(F)F)cc2s1` [Cpd 16, (6-Trifluoromethoxy-benzothiazol-2-yl)-carbamic acid isobutyl ester], the “SGF (3 hours), percent of pro-drug metabolized to riluzole” value (“SGF (3 hours), percent” below) in series [1] is 5%. Besides, the “SIF (3 hours), percent of pro-drug metabolized to riluzole” value (from here on “SIF (3 hours), percent”) in series [2] is given as 0%. Also, the “Metabolic Stability mouse (30 minutes), percent of pro-drug metabolized to riluzole” value in series [3] is 23%. Moreover, the “Metabolic Stability human (30 minutes), percent of pro-drug metabolized to riluzole” value in series [4] came to 14%. Also, the “Plasma Stability mouse (1 hour), percent of pro-drug metabolized to riluzole” value (shortened to “Plasma Stability mouse (1 hour), percent”) in series [5] was found to be 0%. Also, the “Plasma Stability Human (1 hour), percent of pro-drug metabolized to riluzole” value (from here on “Plasma Stability Human (1 hour), percent”) in series [6] was determined as 0%.
With `CN(C)CCOC(=O)Nc1nc2ccc(OC(F)(F)F)cc2s1` [Cpd 18, (6-Trifluoromethoxy-benzothiazol-2-yl)-carbamic acid 2-dimethylamino-ethyl ester], the “SGF (3 hours), percent” value in series [1] is listed as 0%. Further, in series [2], the “SIF (3 hours), percent” value was 0%. The “Metabolic Stability mouse (30 minutes), percent of pro-drug metabolized to riluzole” value in series [3] stood at 13%. In series [4], the “Metabolic Stability human (30 minutes), percent of pro-drug metabolized to riluzole” value turned out to be 10%. Further, the “Plasma Stability mouse (1 hour), percent” value in series [5] stood at 3%. In series [6], the “Plasma Stability Human (1 hour), percent” value worked out at 0%.
On to `CN(C)CCCOC(=O)Nc1nc2ccc(OC(F)(F)F)cc2s1` [Cpd 19, (6-Trifluoromethoxy-benzothiazol-2-yl)-carbamic acid 3-dimethylamino-propyl ester], for which the “SGF (3 hours), percent” value in series [1] is recorded as 0%. Also, in series [2], the “SIF (3 hours), percent” value was 0%. In series [3], the “Metabolic Stability mouse (30 minutes), percent of pro-drug metabolized to riluzole” value is 71%. The “Metabolic Stability human (30 minutes), percent of pro-drug metabolized to riluzole” value in series [4] was 0%. Moreover, the “Plasma Stability mouse (1 hour), percent” value in series [5] was found to be 0%. Besides, in series [6], the “Plasma Stability Human (1 hour), percent” value worked out at 0%.
As for `O=C(O)CCC(=O)Nc1nc2ccc(OC(F)(F)F)cc2s1` [Cpd 20, N-(6-Trifluoromethoxy-benzothiazol-2-yl)-succinamic acid], the “SGF (3 hours), percent” value in series [1] is 0%. In series [2], the “SIF (3 hours), percent” value is 0%. In addition, the “Metabolic Stability mouse (30 minutes), percent of pro-drug metabolized to riluzole” value in series [3] came to 70%. For the same compound, the “Metabolic Stability human (30 minutes), percent of pro-drug metabolized to riluzole” value in series [4] came to 0%. Besides, the “Plasma Stability mouse (1 hour), percent” value in series [5] was found to be 0%. Besides, the “Plasma Stability Human (1 hour), percent” value in series [6] was found to be 16%.
On to `COC(=O)CCC(=O)Nc1nc2ccc(OC(F)(F)F)cc2s1` [Cpd 21, N-(6-Trifluoromethoxy-benzothiazol-2-yl)-succinamic acid methyl ester], for which, in series [1], the “SGF (3 hours), percent” value was 3%. Also, the “SIF (3 hours), percent” value in series [2] is listed as 0%. In addition, the “Metabolic Stability mouse (30 minutes), percent of pro-drug metabolized to riluzole” value in series [3] worked out at 77%. Also, the “Metabolic Stability human (30 minutes), percent of pro-drug metabolized to riluzole” value in series [4] is 34%. Also, in series [5], the “Plasma Stability mouse (1 hour), percent” value is listed as 99%. In series [6], the “Plasma Stability Human (1 hour), percent” value is on record as 25%.
On to `CC(C)(C)OC(=O)CCC(=O)Nc1nc2ccc(OC(F)(F)F)cc2s1` [Cpd 22, N-(6-Trifluoromethoxy-benzothiazol-2-yl)-succinamic acid tert-butyl ester], for which the “SGF (3 hours), percent” value in series [1] was 0%. Besides, the “SIF (3 hours), percent” value in series [2] is on record as 0%. Also, the “Metabolic Stability mouse (30 minutes), percent of pro-drug metabolized to riluzole” value in series [3] is given as 0%. The “Metabolic Stability human (30 minutes), percent of pro-drug metabolized to riluzole” value in series [4] is on record as 21%. In addition, in series [5], the “Plasma Stability mouse (1 hour), percent” value turned out to be 0%. Further, in series [6], the “Plasma Stability Human (1 hour), percent” value is recorded as 0%.
Consider `O=C(CCC(=O)Nc1nc2ccc(OC(F)(F)F)cc2s1)NCc1cccnc1` [Cpd 23, N-Pyridin-3-ylmethyl-N′-(6-trifluoromethoxy-benzothiazol-2-yl)-succinamide], for which, in series [1], the “SGF (3 hours), percent” value was 0%. Besides, the “SIF (3 hours), percent” value in series [2] is reported as 10%. Also, the “Metabolic Stability mouse (30 minutes), percent of pro-drug metabolized to riluzole” value in series [3] is 0%. For the same compound, the “Metabolic Stability human (30 minutes), percent of pro-drug metabolized to riluzole” value in series [4] is 4%. Besides, the “Plasma Stability mouse (1 hour), percent” value in series [5] was 26%. Further, the “Plasma Stability Human (1 hour), percent” value in series [6] is on record as 0%.
As to `CNCCCCC(=O)Nc1nc2ccc(OC(F)(F)F)cc2s1` [Cpd 25, 5-Methylamino-pentanoic acid (6-trifluoromethoxy-benzothiazol-2-yl)-amide], the “SGF (3 hours), percent” value in series [1] is given as 0%. The “SIF (3 hours), percent” value in series [2] is on record as 0%. In addition, the “Metabolic Stability mouse (30 minutes), percent of pro-drug metabolized to riluzole” value in series [3] turned out to be 78%. Also, the “Metabolic Stability human (30 minutes), percent of pro-drug metabolized to riluzole” value in series [4] worked out at 0%. In series [5], the “Plasma Stability mouse (1 hour), percent” value amounted to 0%. Further, the “Plasma Stability Human (1 hour), percent” value in series [6] is 0%.
Regarding `NCCCCC(=O)Nc1nc2ccc(OC(F)(F)F)cc2s1` [Cpd 26, 5-Amino-pentanoic acid (6-trifluoromethoxy-benzothiazol-2-yl)-amide], in series [1], the “SGF (3 hours), percent” value is listed as 0%. The “SIF (3 hours), percent” value in series [2] is given as 0%. Besides, the “Metabolic Stability mouse (30 minutes), percent of pro-drug metabolized to riluzole” value in series [3] amounted to 66%. Also, the “Metabolic Stability human (30 minutes), percent of pro-drug metabolized to riluzole” value in series [4] was 19%. The “Plasma Stability mouse (1 hour), percent” value in series [5] was 0%. Moreover, the “Plasma Stability Human (1 hour), percent” value in series [6] is reported as 5%.
Take `O=C(Cc1ccccc1[N+](=O)[O-])Nc1nc2ccc(OC(F)(F)F)cc2s1` [Cpd 27, 2-(2-Nitro-phenyl)-N-(6-trifluoromethoxy-benzothiazol-2-yl)-acetamide]: in series [1], the “SGF (3 hours), percent” value is recorded as 0%. Besides, the “SIF (3 hours), percent” value in series [2] was 0%. Besides, in series [3], the “Metabolic Stability mouse (30 minutes), percent of pro-drug metabolized to riluzole” value is on record as 59%. Further, the “Metabolic Stability human (30 minutes), percent of pro-drug metabolized to riluzole” value in series [4] was 22%. Moreover, the “Plasma Stability mouse (1 hour), percent” value in series [5] was 0%. For the same compound, in series [6], the “Plasma Stability Human (1 hour), percent” value turned out to be 13%.
As to `Nc1ccc(C(=O)Nc2nc3ccc(OC(F)(F)F)cc3s2)cc1` [Cpd 28, 4-Amino-N-(6-trifluoromethoxy-benzothiazol-2-yl)-benzamide], the “SGF (3 hours), percent” value in series [1] is reported as 0%. Moreover, in series [2], the “SIF (3 hours), percent” value is listed as 0%. Also, the “Metabolic Stability mouse (30 minutes), percent of pro-drug metabolized to riluzole” value in series [3] was found to be 24%. Moreover, the “Metabolic Stability human (30 minutes), percent of pro-drug metabolized to riluzole” value in series [4] came to 80%. Besides, the “Plasma Stability mouse (1 hour), percent” value in series [5] amounted to 0%. Further, the “Plasma Stability Human (1 hour), percent” value in series [6] is listed as 0%.
With `Nc1nc2ccc(OC(F)(F)F)cc2s1` [riluzole, 6-(trifluoromethoxy)-1,3-benzothiazol-2-amine], the increase of lifespan in series [7] is reported as 2-3 months.
